From PubChem BioAssay (NCI)
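The compound was tested at five concentrations on cells cultured in 96-well plates, with a 48-hour exposure period. GI50 marks 50% less growth. TGI: concentration producing complete growth inhibition.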

Legend:
Test in all cases: inhibition of tumour cell growth, NCI panel, 48 h
CAKI-1 renal = tested on: CAKI-1 renal
COLO 205 colon = tested on: COLO 205 colon
HL-60(TB) leukemia = tested on: HL-60(TB) leukemia
HOP-62 NSCLC = tested on: HOP-62 NSCLC
HOP-92 NSCLC = tested on: HOP-92 NSCLC
IGROV1 ovarian = tested on: IGROV1 ovarian
NCI-H460 lung = tested on: NCI-H460 lung
RPMI-8226 leukemia = tested on: RPMI-8226 leukemia
SF-539 CNS = tested on: SF-539 CNS
PC-3 prostate = tested on: PC-3 prostate

| Structure (SMILES) | TGI (CAKI-1 renal) [µM] | TGI (COLO 205 colon) [µM] | TGI (HL-60(TB) leukemia) [µM] | TGI (HOP-62 NSCLC) [µM] | TGI (HOP-92 NSCLC) [µM] | TGI (IGROV1 ovarian) [µM] | TGI (NCI-H460 lung) [µM] | TGI (RPMI-8226 leukemia) [µM] | TGI (SF-539 CNS) [µM] | GI50 (COLO 205 colon) [µM] | GI50 (HL-60(TB) leukemia) [µM] | GI50 (HOP-62 NSCLC) [µM] | GI50 (IGROV1 ovarian) [µM] | GI50 (NCI-H460 lung) [µM] | GI50 (PC-3 prostate) [µM] | TGI (PC-3 prostate) [µM] | GI50 (RPMI-8226 leukemia) [µM] | GI50 (SF-539 CNS) [µM] | GI50 (HOP-92 NSCLC) [µM] | GI50 (CAKI-1 renal) [µM] |
| --- | --- | --- | --- | --- | --- | --- | --- | --- | --- | --- | --- | --- | --- | --- | --- | --- | --- | --- | --- | --- |
| O=[P+](O)c1ccsc1 | > 100 | > 100 | > 100 | > 100 | > 100 | > 100 | > 100 | > 100 | > 100 |  |  |  |  |  |  |  |  |  |  |  |
| COC(=O)c1cccn1C(=O)n1cccc1 | > 100 | > 100 | > 100 | > 100 | > 100 | > 100 | > 100 |  | > 100 |  |  |  |  |  |  |  |  |  |  |  |
| Cc1cccc(C)c1NC(=O)C1C(=O)N(c2c(C)cccc2C)C(=O)/C1=N\N (configuration not stated) | > 100 | > 100 | > 100 | > 100 | > 100 | > 100 |  | > 100 | > 100 |  |  |  |  |  |  |  |  |  |  |  |
| C=C1CCC2C3(C)COC(c4ccccc4)OC3CCC2(C)C1/C=C/C1=CCOC1=O (configuration not stated) |  | 16.8 | 3.91 | 46.7 |  | 11.9 | 35.9 | 5.69 | 21.2 | 4.09 | 1.27 | 22.9 | 3.4 | 9.29 | 4.75 | 51.3 | 1.69 | 8.71 |  |  |
| O=C(CCN1CCN(c2ccccc2)CC1)N1CCc2c([nH]c3ccccc23)C1c1cccnc1 (configuration not stated) | 33.5 | 26.7 | 33.6 | 40.4 | 37.7 | > 100 | 34.4 |  | 35.4 |  |  |  |  |  |  |  |  |  |  |  |
| CC(C)(C)c1cc(-n2c(-c3ccc(Cl)cc3)nc3cc(C(=O)Nc4ccc(Cl)cc4)ccc32)n[nH]1 |  | > 100 | > 100 | 36.9 | 6.51 | > 100 | > 100 |  | > 100 | 4.71 | 3.18 | 14.1 | 5.65 | 3.57 | 3.29 | > 100 |  | 28 | 1.65 |  |
| CC(Nc1ccc(S(=O)(=O)N=C(N)N)cc1)c1c2ccccc2nc2ccccc12 (configuration not stated) | 81 | > 100 | 39.2 |  | 55.5 | > 100 | 83.8 | 55.2 | 63.4 |  |  |  |  |  |  |  |  |  |  |  |
| O=C(c1ccccc1)C1OC1c1ccc([N+](=O)[O-])cc1 (configuration not stated) | 6.56 | 30.4 |  | 65.9 |  | 11.6 | 40.2 | > 100 | 76.8 | 12.9 |  | 4.76 | 3.01 | 10 | 9.9 | > 100 | 8.29 | 10.2 |  | 2.31 |
| CC1=C(c2ccccc2)NC(=S)C(C)C(c2ccccc2)=N1 (configuration not stated) | > 100 | > 100 | 35.1 | > 100 |  | > 100 | > 100 | 57.5 | 30.9 |  |  |  |  |  |  |  |  |  |  |  |
| CSc1nc(NC2OC(COC(C)=O)C(OC(C)=O)C(OC(C)=O)C2OC(C)=O)c2c(n1)OCC2=O (configuration not stated) | > 100 | > 100 | > 100 | > 100 | > 100 | > 100 | > 100 | > 100 | > 100 |  |  |  |  |  |  |  |  |  |  |  |
| O=Nc1ccc(NO)c2ccccc12 | 25.2 | 29.3 | 7.56 | 27.9 |  | 16.4 | 51.3 | 56.2 | 31.1 | 14.7 | 3.14 | 14.6 | 3.62 | 21.7 | 2.44 | 13.2 | 13.3 | 17.1 |  | 12.2 |
| Nc1nnnn1CCO | > 100 | > 100 |  | > 100 | > 100 | > 100 | > 100 | > 100 | > 100 |  |  |  |  |  |  | > 100 |  |  |  |  |
| NC(=O)/N=C1/CCC2C3CCCC2C13 | > 100 | > 100 | > 100 | > 100 | > 100 | > 100 | > 100 | > 100 | > 100 |  |  |  |  |  |  |  |  |  |  |  |
| C#CCSc1cc(Cl)c(C)cc1S(=O)(=O)Nc1nc2ccccc2o1 | 67.9 | 71.7 |  | 65.6 | 51.3 | > 100 | > 100 | > 100 | 39.1 | 26 |  | 29 | 34.8 | 37.5 | 32.6 | > 100 | 38.1 | 20.2 | 17.9 | 26.3 |
| Cc1ccc(NC(=O)CC2Sc3ccccc3NC2=O)c(C)c1 (configuration not stated) | 63.3 | 38.7 | 8.35 | 34 | 39.5 | > 100 | 32.4 | 43.9 | 29.6 |  |  |  |  |  |  |  |  |  |  |  |
| C#Cc1c(/C=C/C(=O)OCC)ccc2ccccc12 | 56.7 | 33.5 | 26.1 | 95.5 |  | 26.2 | > 100 | 29.3 | 48.9 | 13.8 | 10.6 | 28.5 | 5.77 | 78.2 | 18.3 | 63.6 | 10.7 | 22.3 |  | 21.4 |
| O=C(O)CCC(N=Cc1nc(-c2ccccc2)oc1O)C(=O)O (configuration not stated) | > 100 | > 100 |  | > 100 |  | > 100 | > 100 | > 100 | > 100 |  |  |  |  |  |  |  |  |  |  |  |
| COC(=O)C(C(=O)C(=O)Nc1ccc([N+](=O)[O-])cc1[N+](=O)[O-])c1nc2ccc(Cl)cc2[nH]c1=O (configuration not stated) | > 100 | > 100 | > 100 | > 100 | > 100 | > 100 | > 100 | > 100 | > 100 |  |  |  |  |  |  |  |  |  |  |  |
| CN(C)CCNC(=O)c1cccc(N(C)C(=O)c2ccccc2)c1[N+](=O)[O-] | > 100 | > 10 | > 100 | > 100 |  | > 100 | > 100 |  | > 100 |  |  |  |  |  |  | > 100 |  |  |  |  |
| CCOC(=O)N1CCC(=O)C(CNC23CC4CC(CC(C4)C2)C3)C1 (configuration not stated) |  | > 100 | > 100 | > 100 | 41 |  | > 100 |  | > 100 |  |  |  |  |  |  |  |  |  |  |  |
